Laboratory results published in patent US20120071539A1, “COMPOUNDS AND METHODS FOR MODULATING THE SILENCING OF A POLYNUCLEOTIDE OF INTEREST” (Emory University, priority 2006, published 2012).

Assays:
[1] = test system: shRNA against Luciferase mRNA; experiment: GL-3 luciferase reporter in cells expressing shRNA against luciferase; format: cell-based; details: FIG. 5
Description: In this example, a luciferase reporter construct GL-3 was transfected into the cells expressing shRNA against Luciferase mRNA.

tumor cell models = details: cited from earlier work
bladder cancer cells = details: cited from earlier work
miR-30a-3p = experiment: miRNA sensor Luc-T30 dual luciferase assay; format: cell-based; details: endogenously expressed miR-30; FIG. 6, FIG. 7
Description: (A) Design of a siRNA duplex against miR-30a precursor (siRNA-p) and a control siRNA duplex (siRNA-c). The miR-30a precursor is provided as SEQ ID NO:1. The siRNA target region is represented by nucleotides 21-40 of SEQ ID NO:1. The siRNA-p is provided as SEQ ID NO:2 and the siRNA-c is provided as SEQ ID NO:3. The double stranded siRNA is shown on the bottom and predicted pairing between one siRNA strand (blue) and the precursor target (green).
In FIG. 6, top left panel, the blue arrowheads in Luc-T30 indicate artificial target sequence against miR-30a-3p. Luc-AT30 has an artificial sequence complementary to that in Luc-T30. […] Relative luciferase activity was calculated by dividing the reporter (Firefly) luciferase activity with co-transfected Renilla luciferase activity. Luciferase activity was decreased by transfecting Luc-T30 in HepG2 (orange bars) without changes in the amount of its mRNA (blue bars). Error bars represent the standard deviation (SD) of three triplicate experiments. […] Error bars represent the standard deviation (SD) from three triplicate experiments. **P=0.004; *****P=0.00001.
This reporter contains the target sequence of miR-30. In the miR-30 system, the endogenously expressed miR-30 was used and, in this cell line, miR-30 has been processed completely. Thus, the addition of enoxacin had no effect.

## O=C(O)c1cn(C2CC2)c2cc(N3CCNCC3)c(F)cc2c1=O [ciprofloxacin]
[1]
  knock-down efficiency of shRNA against luciferase mRNA: increased the knock-down efficiency
  siRNA-mediated mRNA degradation: enhance siRNA-mediated mRNA degradation

## c1ccc(CNC2CC(NCc3ccccn3)CC(NCc3ccccn3)C2)nc1 (stereo not shown) [Tachpyridine, tachpyridine]
Tumor cell models
  anti-proliferative activity: anti-proliferative activity
Bladder cancer cells
  ferritin synthesis: inhibit
  proliferation of bladder cancer cells in culture: inhibit

## siRNA-p: siRNA duplex against miR-30a precursor, SEQ ID NO:2 (UGGAAGCUGUGAAGCCACATT; chemistry not given here)
miR-30a-3p
  miRNA-mediated translational suppression of Luc-T30 reporter: reversed the translational suppression

## siRNA-c: control siRNA duplex, SEQ ID NO:3 (UGGUAGCAGUCAUGGCACATT; chemistry not given here)
miR-30a-3p
  miRNA-mediated translational suppression of Luc-T30 reporter: no effect
